Measurements: ChEMBL document CHEMBL1150338, “Prediction and identification of drug interactions with the human ATP-binding cassette transporter multidrug-resistance associated protein 2 (MRP2; ABCC2)” (J Med Chem, 2008)

Target: MRP2 (ABCC2) (Homo sapiens, UniProt Q92887)
Experiment: in vitro
[1] = probe estradiol-17-beta-glucuronide
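Further: Inside-out membrane vesicles from Sf9 insect cells expressing human MRP2, measuring uptake of the estradiol glucuronide substrate, expressed as percent of untreated control.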

MRP2 (ABCC2), sequence (Q92887 whole entry): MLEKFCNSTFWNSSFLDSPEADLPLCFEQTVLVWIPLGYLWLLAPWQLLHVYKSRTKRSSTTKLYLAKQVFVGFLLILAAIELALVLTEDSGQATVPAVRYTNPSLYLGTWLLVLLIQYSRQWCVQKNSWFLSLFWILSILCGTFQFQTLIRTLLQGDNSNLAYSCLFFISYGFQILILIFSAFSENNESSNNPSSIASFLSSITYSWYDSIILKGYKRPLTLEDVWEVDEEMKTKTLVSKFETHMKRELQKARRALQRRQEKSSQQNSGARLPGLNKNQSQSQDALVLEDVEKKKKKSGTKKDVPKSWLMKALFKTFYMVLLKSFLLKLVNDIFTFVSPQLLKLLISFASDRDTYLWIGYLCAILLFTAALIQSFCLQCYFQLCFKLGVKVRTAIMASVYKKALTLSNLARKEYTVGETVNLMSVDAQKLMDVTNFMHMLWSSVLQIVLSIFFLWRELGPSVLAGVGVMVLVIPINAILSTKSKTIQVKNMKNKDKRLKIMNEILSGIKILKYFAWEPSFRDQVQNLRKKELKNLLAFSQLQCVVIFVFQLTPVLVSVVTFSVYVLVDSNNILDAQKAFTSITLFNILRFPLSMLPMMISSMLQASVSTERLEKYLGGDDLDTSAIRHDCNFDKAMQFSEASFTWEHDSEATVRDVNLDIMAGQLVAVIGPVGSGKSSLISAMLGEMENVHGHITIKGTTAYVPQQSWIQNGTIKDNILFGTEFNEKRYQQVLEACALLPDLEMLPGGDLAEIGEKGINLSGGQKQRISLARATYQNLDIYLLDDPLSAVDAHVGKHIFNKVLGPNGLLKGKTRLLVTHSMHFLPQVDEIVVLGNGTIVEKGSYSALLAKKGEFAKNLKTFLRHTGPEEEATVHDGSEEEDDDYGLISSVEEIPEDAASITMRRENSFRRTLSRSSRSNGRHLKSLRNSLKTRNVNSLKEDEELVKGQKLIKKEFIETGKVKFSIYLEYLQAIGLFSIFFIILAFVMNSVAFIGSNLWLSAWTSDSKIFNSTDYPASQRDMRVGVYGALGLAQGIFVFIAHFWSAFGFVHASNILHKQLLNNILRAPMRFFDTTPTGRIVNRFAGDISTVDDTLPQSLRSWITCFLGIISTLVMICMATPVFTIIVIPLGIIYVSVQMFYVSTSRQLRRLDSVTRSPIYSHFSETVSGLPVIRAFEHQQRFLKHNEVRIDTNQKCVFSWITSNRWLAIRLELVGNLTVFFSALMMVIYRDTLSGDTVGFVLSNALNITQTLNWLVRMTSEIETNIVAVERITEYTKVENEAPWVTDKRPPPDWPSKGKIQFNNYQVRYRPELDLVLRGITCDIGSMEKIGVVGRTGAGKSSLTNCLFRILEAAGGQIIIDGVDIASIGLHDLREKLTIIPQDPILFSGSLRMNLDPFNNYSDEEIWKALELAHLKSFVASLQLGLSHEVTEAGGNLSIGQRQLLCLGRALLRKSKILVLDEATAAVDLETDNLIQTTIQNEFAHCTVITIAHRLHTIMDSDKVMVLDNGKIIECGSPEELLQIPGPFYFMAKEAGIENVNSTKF
Description: Effect on human MRP2-mediated estradiol-17-beta-glucuronide transport in Sf9 cells inverted membrane vesicles relative to control

SMILES	activity [1]	activity (sf9)
C[C@@H]1CN(c2c(F)c(N)c3c(=O)c(C(=O)O)cn(C4CC4)c3c2F)C[C@H](C)N1 [SPARFLOXACIN]	138%	–
CC1=C(CC(=O)O)c2cc(F)ccc2/C1=C\c1ccc([S+](C)[O-])cc1 (stereo not given)	151%	–
CCc1c2c(nc3ccc(OC(=O)N4CCC(N5CCCCC5)CC4)cc13)-c1cc3c(c(=O)n1C2)COC(=O)[C@]3(O)CC [IRINOTECAN]	101%	–
OCCN(CCO)c1nc(N2CCCCC2)c2nc(N(CCO)CCO)nc(N3CCCCC3)c2n1 [DIPYRIDAMOLE]	42%	–
C[C@H](CCC(=O)O)[C@H]1CC[C@H]2[C@@H]3[C@H](O)C[C@@H]4C[C@H](O)CC[C@]4(C)[C@H]3C[C@H](O)[C@]12C [CHOLIC ACID]	112%	–
CC/C(=C(/CC)c1ccc(O)cc1)c1ccc(O)cc1 [DIETHYLSTILBESTROL]	11%	–
COc1ccc2cc([C@H](C)C(=O)O)ccc2c1 [NAPROXEN]	–	92%
Cc1cccc(C)c1OCC(=O)N[C@@H](Cc1ccccc1)[C@@H](O)C[C@H](Cc1ccccc1)NC(=O)[C@H](C(C)C)N1CCCNC1=O [LOPINAVIR]	–	33%
O=C1CN(/N=C/c2ccc([N+](=O)[O-])o2)C(=O)N1 [NITROFURANTOIN]	–	94%
CC1(C)S[C@@H]2[C@H](NC(=O)Cc3ccccc3)C(=O)N2[C@H]1C(=O)O [PENICILLIN G]	76%	–
CC1COc2c(N3CCN(C)CC3)c(F)cc3c(=O)c(C(=O)O)cn1c23 (stereo not given) [OFLOXACIN]	83%	–
CC(C)(C)c1ccc(C(O)CCCN2CCC(C(O)(c3ccccc3)c3ccccc3)CC2)cc1 (stereo not given) [TERFENADINE]	–	3%
CC(C(=O)O)c1cccc(C(=O)c2ccccc2)c1 (stereo not given) [KETOPROFEN]	120%	–
Cc1cn([C@H]2C[C@H](N=[N+]=[N-])[C@@H](CO)O2)c(=O)[nH]c1=O [ZIDOVUDINE]	103%	–
C[C@]12CC[C@H]3[C@@H](CCC4=CC(=O)CC[C@@]43C)[C@@H]1CC[C@@H]2O [TESTOSTERONE]	140%	–
CCOC(=O)C1=C(C)NC(C)=C(C(=O)OC)C1c1cccc([N+](=O)[O-])c1 (stereo not given) [NITRENDIPINE]	224%	–
CCCCc1oc2ccccc2c1C(=O)c1cc(I)c(OCCN(CC)CC)c(I)c1 [AMIODARONE]	–	66%
O=C1NC(=O)C(c2ccccc2)(c2ccccc2)N1 [PHENYTOIN]	125%	–
CCOC(=O)C1=C(C)NC(C)=C(C(=O)OC)C1c1cccc(Cl)c1Cl (stereo not given) [FELODIPINE]	86%	–
CCN(CC)Cc1cc(Nc2ccnc3cc(Cl)ccc23)ccc1O	60%	–
COc1cc(Cc2cnc(N)nc2N)cc(OC)c1OC [TRIMETHOPRIM]	–	107%
C[C@]12C=CC(=O)C=C1CC[C@@H]1[C@@H]2C(=O)C[C@@]2(C)[C@H]1CC[C@]2(O)C(=O)CO [PREDNISONE]	51%	–
CC(C)(C)NC[C@H](O)COc1nsnc1N1CCOCC1 [TIMOLOL]	–	91%
O=C1OC2(c3ccc(O)cc3Oc3cc(O)ccc32)c2ccccc21 [FLUORESCEIN]	82%	–
CNCCCC12CCC(c3ccccc31)c1ccccc12 [MAPROTILINE]	–	56%
CC(=O)N1CCN(c2ccc(OC[C@H]3CO[C@](Cn4ccnc4)(c4ccc(Cl)cc4Cl)O3)cc2)CC1 [KETOCONAZOLE]	76%	–
NCCCC[C@H](N[C@@H](CCc1ccccc1)C(=O)O)C(=O)N1CCC[C@H]1C(=O)O [LISINOPRIL ANHYDROUS]	43%	–

SMILES	activity [1]	activity (sf9)
CN(C)CCCN1c2ccccc2Sc2ccc(Cl)cc21 [CHLORPROMAZINE]	–	58%
CSc1ccc2c(c1)N(CCC1CCCCN1C)c1ccccc1S2 (stereo not given) [THIORIDAZINE]	-1%	–
COc1cc2c(cc1OC)CN(CCc1ccc(NC(=O)c3cccc4c(=O)c5cccc(OC)c5[nH]c34)cc1)CC2	39%	–
CC(C)(C)NC(=O)[C@@H]1CN(Cc2cccnc2)CCN1C[C@@H](O)CC(Cc1ccccc1)C(=O)N[C@H]1c2ccccc2C[C@H]1O (single isomer, unassigned)	93%	–
CCS(=O)(=O)CCn1c([N+](=O)[O-])cnc1C [TINIDAZOLE]	55%	–
C#Cc1cccc(Nc2ncnc3cc(OCCOC)c(OCCOC)cc23)c1 [ERLOTINIB]	47%	–
C[C@]12CC[C@H](OS(=O)(=O)O)CC1=CC[C@@H]1[C@@H]2CC[C@]2(C)C(=O)CC[C@@H]12 [PRASTERONE SULFURIC ACID]	395%	–
COc1ccc(/C=C/C(=O)Nc2ccccc2C(=O)O)cc1OC	98%	–
C[C@H]1O[C@@H](O[C@H]2[C@@H](O)C[C@H](O[C@H]3[C@@H](O)C[C@H](O[C@H]4CC[C@@]5(C)[C@H](CC[C@@H]6[C@@H]5C[C@@H](O)[C@]5(C)[C@@H](C7=CC(=O)OC7)CC[C@]65O)C4)O[C@@H]3C)O[C@@H]2C)C[C@H](O)[C@@H]1O [DIGOXIN]	99%	–
CN(C)CCC=C1c2ccccc2CCc2ccccc21 [AMITRIPTYLINE]	51%	–
S=C=NCCc1ccccc1 [PHENETHYLISOTHIOCYANATE]	94%	–
Cc1onc(-c2c(F)cccc2Cl)c1C(=O)N[C@@H]1C(=O)N2[C@@H]1SC(C)(C)[C@@H]2C(=O)O [FLOXACILLIN]	73%	–
O=c1cc(-c2ccccc2)oc2cc(O)cc(O)c12 [CHRYSIN]	110%	–
CC(=O)[C@@]1(O)CC[C@H]2[C@@H]3C[C@H](C)C4=CC(=O)CC[C@]4(C)[C@H]3CC[C@@]21C	111%	–
C[C@]12C=CC(=O)C=C1CC[C@@H]1[C@@H]2[C@@H](O)C[C@@]2(C)[C@H]1CC[C@]2(O)C(=O)CO [PREDNISOLONE]	110%	–
COc1ccc2[nH]c([S+]([O-])Cc3ncc(C)c(OC)c3C)nc2c1 (stereo not given) [OMEPRAZOLE]	101%	–
COc1cc2nc(N3CCN(C(=O)c4ccco4)CC3)nc(N)c2cc1OC [PRAZOSIN]	78%	–
C[C@H](CS)C(=O)N1CCC[C@H]1C(=O)O [CAPTOPRIL]	104%	–
CCC[C@@]1(CCc2ccccc2)CC(O)=C([C@H](CC)c2cccc(NS(=O)(=O)c3ccc(C(F)(F)F)cn3)c2)C(=O)O1	88%	–
Cc1nc2sccn2c(=O)c1CCN1CCC(=C(c2ccc(F)cc2)c2ccc(F)cc2)CC1 [RITANSERIN]	86%	–
O=C1c2c(O)ccc(O)c2C(=O)c2c(NCCNCCO)ccc(NCCNCCO)c21 [MITOXANTRONE]	175%	–
CC(C)NCC(O)COc1cccc2ccccc12 (stereo not given) [PROPRANOLOL]	69%	–
CC(C)NCC(O)c1ccc(NS(C)(=O)=O)cc1 (stereo not given) [SOTALOL]	–	96%
CCN(CC)CCCC(C)Nc1ccnc2cc(Cl)ccc12 (stereo not given) [CHLOROQUINE]	–	102%
C#CC1(O)CC[C@H]2[C@@H]3CCc4cc(O)ccc4[C@H]3CC[C@@]21C (single isomer, unassigned) [ETHINYL ESTRADIOL]	53%	–
CCOc1ccc(NC(C)=O)cc1 [PHENACETIN]	83%	–
COC(=O)[C@H]1[C@H]2C[C@@H]3c4[nH]c5cc(OC)ccc5c4CCN3C[C@H]2C[C@@H](OC(=O)c2cc(OC)c(OC)c(OC)c2)[C@@H]1OC [RESERPINE]	–	37%

SMILES	activity [1]	activity (sf9)
CC(C)Cc1ccc(C(C)C(=O)O)cc1 (stereo not given) [IBUPROFEN]	130%	–
C=C[C@H]1C[N@@]2CC[C@H]1C[C@H]2[C@H](O)c1ccnc2ccc(OC)cc12 [QUININE]	75%	–
[H]/N=C(/N)N/C(=N/[H])NCCc1ccccc1 [PHENFORMIN]	88%	–
Cc1ccc(-c2cc(C(F)(F)F)nn2-c2ccc(S(N)(=O)=O)cc2)cc1 [CELECOXIB]	46%	–
N[C@@H](CCC(=O)N[C@@H](CS)C(=O)NCC(=O)O)C(=O)O [GLUTATHIONE]	–	116%
O=C1Nc2ccc(Cl)cc2C(c2ccccc2)=NC1O (stereo not given) [OXAZEPAM]	103%	–
C[n+]1cc2c3c(ccc2c2ccc4cc5c(cc4c21)OCO5)OCO3 [SANGUINARIUM CHLORIDE]	44%	–
O[C@](CCN1CCCC1)(c1ccccc1)C1CCCCC1 [PROCYCLIDINE]	62%	–
CN1C(C(=O)Nc2ccccn2)=C(O)c2ccccc2S1(=O)=O [PIROXICAM]	100%	–
Oc1ccc(/C=C/c2cc(O)cc(O)c2)cc1 [RESVERATROL]	75%	–
CC(C)C(=O)Nc1ccc([N+](=O)[O-])c(C(F)(F)F)c1 [FLUTAMIDE]	126%	–
CC1=C(C(=O)O)N2C(=O)[C@@H](NC(=O)[C@H](N)c3ccc(O)cc3)[C@H]2SC1 [CEFADROXIL]	68%	–
COc1ccc([C@@H]2Sc3ccccc3N(CCN(C)C)C(=O)[C@@H]2OC(C)=O)cc1 [DILTIAZEM]	40%	–
CN(C)CC/C=C1/c2ccccc2Sc2ccc(Cl)cc21 [CHLORPROTHIXENE]	25%	–
C[C@]12CC[C@H]3[C@@H](CCC4=CC(=O)CC[C@@H]43)[C@@H]1CC[C@@H]2O [NANDROLONE]	106%	–
CCOc1ccc(-c2nc3cc(-c4nc5cc(N6CCN(C)CC6)ccc5[nH]4)ccc3[nH]2)cc1	70%	–
COc1ccc(CCN(C)CCCC(C#N)(c2ccc(OC)c(OC)c2)C(C)C)cc1OC (stereo not given)	56%	–
CC[C@]1(O)C[C@@H]2CN(CCc3c([nH]c4ccccc34)[C@@](C(=O)OC)(c3cc4c(cc3OC)N(C)[C@H]3[C@@](O)(C(=O)OC)[C@H](OC(C)=O)[C@]5(CC)C=CCN6CC[C@]43[C@@H]65)C2)C1 [VINBLASTINE]	78%	–
COc1ccc2c(c1)[C@]13CCCC[C@@H]1[C@H](C2)N(C)CC3 [DEXTROMETHORPHAN]	57%	–
O=C1c2c(O)cc(O)cc2O[C@H](c2ccc(O)c(O)c2)[C@H]1O [(+)-TAXIFOLIN]	108%	–
N=C(N)NC(=O)c1nc(Cl)c(N)nc1N [AMILORIDE]	82%	–
N[C@@H](Cc1c[nH]c2ccccc12)C(=O)O [TRYPTOPHAN]	66%	–
COc1cccc2c1C(=O)c1c(O)c3c(c(O)c1C2=O)C[C@@](O)(C(=O)CO)C[C@@H]3O[C@H]1C[C@H](N)[C@H](O)[C@H](C)O1 [DOXORUBICIN]	–	87%
CO[C@H]1/C=C/O[C@@]2(C)Oc3c(C)c(O)c4c(O)c(c(/C=N/N5CCN(C)CC5)c(O)c4c3C2=O)NC(=O)/C(C)=C\C=C\[C@H](C)[C@H](O)[C@@H](C)[C@@H](O)[C@@H](C)[C@H](OC(C)=O)[C@@H]1C [RIFAMPIN]	18%	–
COC(=O)C1=C(C)NC(C)=C(C(=O)OCCN(C)Cc2ccccc2)C1c1cccc([N+](=O)[O-])c1 (stereo not given) [NICARDIPINE]	–	59%
O=c1c(-c2ccc(O)cc2)coc2cc(O)cc(O)c12 [GENISTEIN]	101%	–
